Assay results published in a melting point compilation (Tetko et al.; mined from patent text by program, amines drawn as free bases though some values may be those of a salt).

| SMILES | melting point [°C] |
| --- | --- |
| CNc1nc(-c2ccccc2)c(-c2nc3ccccc3c(=O)n2-c2cccc(C)c2)s1 | 186 to 187 |
| CCc1cccc(C)c1CNc1cc(Cl)nc(Cl)c1[N+](=O)[O-] | 118 to 121 |
| CCOC(=O)c1c(CCc2ccc(C(F)(F)F)cc2)nc2c(c1-c1ccc(C(=O)N[C@@H](C)c3ccncc3)cc1)C(=O)N1CCC[C@@H]21 | 158 to 160 |
| O=C(O)c1cccc(C(=O)C=Cc2ccc(OCc3ccc4ccccc4n3)cc2)c1O | 233 to 235 |
| COc1ccc(C2CCN(C(=O)N3CCC(Nc4ccc(CCNC[C@H](O)COc5ccc(O)cc5)cc4)CC3)CC2)cc1OC1CCCC1 | 92 to 95 |
| CC(C)(O)c1cccc(-c2ccc3nc(-c4ccc(Cl)cc4)cn3c2)c1 | 166 to 168 |
| Cc1ccc(C=C2C=C(C(C)(C)C)C=C(C(C)(C)C)C2=O)cc1C | 214 to 217 |
| Cc1cc(Br)ccc1C(=O)NCc1ccccn1 | 86 to 87.5 |
| CS(=O)(=O)c1ccc(-c2oc(CC(=O)O)nc2-c2ccc(F)cc2)cc1 | 118 to 120 |
| O=S1(=O)CCSC(Oc2cccc(Cl)c2)=N1 | 170 |
| C/C(=C\CCC1(C)CCc2cc(O[Si](C)(C)C(C)(C)C)c(C)c(C)c2O1)CCl (stereo not drawn) | 56 to 58 |
| Cc1cc(C2=CC(C)(C)CC(C)(C)C2CO)ccc1F (stereo not drawn) | 40 to 42 |
| COc1ccc(C2(C#Cc3ccc([N+](=O)[O-])cc3)CCC3(CC2)OCCO3)cc1OC1CCCC1 | 58 to 59 |
| COc1ccc(C(=O)Nc2ccc(C(C)(C)c3noc(COc4ccccc4)n3)cc2)cc1OC | 165 to 167 |
| CCC(CC)n1c(=O)ccc2cnc(Nc3ccccc3)nc21 | 116 to 118 |
| COc1cccc(Sc2c(O)c3c(Cl)cc(Cl)cc3[nH]c2=O)c1 | 269 to 270 |
| O=C1N(C(c2ccccc2)c2ccccc2)c2ccccc2C12COc1cc(F)c(F)cc12 (stereo not drawn) | 213 to 216 |
| O=C1CCc2c(ccc3cc(O)ccc23)O1 | 189 to 199 |
| CCc1c(-c2cnccn2)ssc1=S | 121 |
| COC(=O)CCC(=O)c1ccc(N2CCOCC2)cc1 | 120 to 121 |
| CCOC(=O)CNC(=O)C1(CC)CCCCCCC1 | 65 to 67 |
| Nc1ccc(-c2noc(-c3cnn4c(C(F)(F)F)cc(-c5cccc(C(F)(F)F)c5)nc34)n2)cn1 | 264 |
| COc1cc(OC)c(C(C)=O)cc1OC | 91 to 93 |
| Cc1cc(Oc2ncc(C(F)(F)F)cc2Cl)n[nH]1 | 93 to 95 |
| CC(C)c1ccc2c(c1)c(-c1ccccc1Cl)c(NC(=O)Nc1ccc(F)cc1F)c(=O)n2C | 152 to 156 |
| CCCCCCNCc1ccc(COc2cccc3c2CN(C2CCC(=O)NC2=O)C3=O)cc1 (stereo not drawn) | 155 to 157 |

| SMILES | melting point [°C] |
| --- | --- |
| COc1cc(C)nc(CNC(=O)NS(=O)(=O)c2ccccc2S(=O)(=O)N(C)C)n1 | 153 to 156 |
| Cc1nn(-c2ccccn2)c2c1C(O)CC(C)(C)C2 (stereo not drawn) | 125 to 126 |
| Cn1cccc(N)c1=S | 98 to 100 |
| Clc1ccc(-c2ccc(-c3ccccc3)s2)s1 | 128 to 132 |
| CSc1ccc(-c2nn(CC3CC3)c(=O)cc2-c2ccc(Cl)cc2)cc1 | 142 to 143 |
| CCCCc1oc2ccccc2c1C(=O)Nc1ccc2c(Br)c(OC(Cc3ccccc3)C(=O)OC)ccc2c1 (stereo not drawn) | 136 to 139 |
| CN(C)C(=O)Oc1cccc2c1CC[C@H]1[C@H]2CCN1CCC1CCCCC1 | 110 to 112 |
| Cc1nc2ccc(C(=O)O)[nH]c-2c1Cc1ccc(Cl)cc1Cl | 235 to 236 |
| Clc1ccc2nc(CN3CCN(c4ccccc4)CC3)[nH]c2c1 | 198 to 201 |
| CCNc1cc(C(C)=O)ccn1 | 55 to 57 |
| O=C(O)CCCCCCCCc1ccc(O)cc1 | 103 to 105 |
| C=CCONC(O)(CC)C1C(=O)C=C(CC)OC1=O (stereo not drawn) | 62.5 to 64 |
| CN(SC(C)(C)C)C(=O)Nc1ccc(Cl)c(Cl)c1 | 127 |
| O=[N+]([O-])c1ccc(Br)cc1-c1cc(-c2ccc(Br)cc2)on1 | 184 to 185 |
| COC(=O)C(O)=CC(=O)c1cn(Cc2ccccc2)c(=O)n(Cc2ccccc2)c1=O | 158 to 159 |
| O=C1CN(C(c2ccccc2)c2ccccc2)N1 | 160 to 163 |
| CCN(CC)CCNC(=O)c1cccc2cc3ccc(I)cc3nc12 | 80 to 82 |
| O=C(CC(=O)c1ccc(-c2ccccc2)cc1)Nc1ccc(OCCN2CCCC2)c(C(=O)O)c1 | 236 to 240 |
| CC(=O)c1coc(S(N)(=O)=O)c1 | 135 to 136 |
| CN(C)C1CCC(Nc2nc3cc4c(cc3nc2-c2ccccn2)CCC4)CC1 (stereo not drawn) | 158 to 161 |
| CCOC(=O)NCc1ccc2[nH]cc(CC#N)c2c1 | 104 to 106 |
| COc1cc(CC(=O)C(CNCCOc2ccc(C(=O)O)cc2OC)NC2CC2)ccc1NC(=O)Nc1ccccc1C (stereo not drawn) | 135 to 140 |
| Clc1ccc2c(C3=CCN(CCNc4ccccn4)CC3)c[nH]c2c1 | 217 to 219 |
| CC(C)[C@H](NC(=O)/C=C/c1cccnc1)C(=O)N[C@@H](Cc1ccccc1)[C@@H](O)[C@H](O)[C@H](Cc1ccccc1)NC(=O)[C@@H](NC(=O)/C=C/c1cccnc1)C(C)C | 285 to 289 |
| CCOC(=O)CN1C(=O)[C@@H](N)CCc2ccccc21 | 106 to 108 |
| CC(C(=O)N1CCCC1C(=O)O)N(C(=O)C(NC(=O)c1ccccc1)SC(=O)c1ccccc1)C(C)(C)C (stereo not drawn) | 97 to 100 |

| SMILES | melting point [°C] |
| --- | --- |
| COc1ccc(C(=O)Cc2ccc3c(c2)OCO3)cc1OC | 110 to 111 |
| O=C(Nc1ccccc1)C1CSc2sccc2C1=O (stereo not drawn) | 155 to 158 |
| CCCOCCOc1cccc2oc(C(=O)N3CCN(C)CC3)cc(=O)c12 | 78 to 80 |
| CC(C)=NOc1ccc([N+](=O)[O-])cc1 | 104 to 106 |
| Cc1cncc2cc(S(N)(=O)=O)oc12 | 180 to 182 |
| CCCc1nc2c(N)nc3cc(-c4cccc(C(=O)N(CC)CC)c4)ccc3c2s1 | 169 to 172 |
| CN(C)CCCC(N)=S | 77 |
| CC1=NC(NC(=O)Nc2cccc(C)c2)C(=O)N(CC(=O)N(C)c2ccccn2)c2c(C)cccc21 (stereo not drawn) | 222 to 224 |
| CCCCOc1cc(CCC(=O)O)ccc1CCCc1ccc(OCCCC)c(OC)c1 | 64 |
| Nc1sc(-c2ccccc2)c(CN(C2CCCCC2)C2CCCCC2)c1C(=O)c1ccc(Cl)cc1 | 201 to 203 |
| CC1(C)CCC(C)(C)c2cc(S(=O)Cc3ccc(C(=O)O)cc3)ccc21 (stereo not drawn) | 198 to 200 |
| CC1CCc2cc(C3=NNC(=O)C4CC34)ccc2NC1=O (stereo not drawn) | 305 to 307 |
| O=C(NO)[C@H](CNS(=O)(=O)c1ccc(OCC2CC2)cc1)N1CCOCC1 | 147 |
| O=C(c1cc(Br)ccc1[N+](=O)[O-])C(Br)C(Br)c1cccc(Br)c1 (stereo not drawn) | 153 to 155 |
| CCC(=O)Oc1ccc(C(=O)c2ccccc2)cc1 | 53.5 to 54.5 |
| CCCCc1nn(-c2ccccc2C(F)(F)F)c(=O)n1Cc1ccc(-c2ccccc2S(=O)(=O)NC(=O)OC(C)(C)C)cc1F | 83 to 85 |
| CC(=O)NCc1ccc(CCl)cc1 | 116 to 118 |
| Clc1ccc2c(c1)-c1nnnn1-c1ccccc1O2 | 209 to 211 |
| Nc1cccc(OC2CCCCO2)c1O (stereo not drawn) | 163 to 166 |
| CN(c1ccc(O)cc1)c1nc2ccc(Br)cc2o1 | 195 |
| CN1CCN(c2cccc3ccc(-n4cnc5ccccc54)cc23)CC1 | 148 to 150 |
| O=C(c1ccc(F)cc1)C1CCN(CCCn2c(=O)[nH]c3cc(C(F)(F)F)ccc32)CC1 | 160 |
| CC1(C)C=C(C(=O)NCC2COC(C)(C)O2)C(C)(C)N1 (stereo not drawn) | 55 to 57 |
| Cn1nc(C#N)nc1NCCCOc1cccc(CN2CCCCC2)c1 | 66 to 67 |
| CCCCCCCCCCCCNc1ncnc2nc[nH]c12 | 159 to 160 |
| CC(C)(C)OC(=O)N1CCN(c2ccc([N+](=O)[O-])cc2)CC1 | 136 to 140 |

| SMILES | melting point [°C] |
| --- | --- |
| O=C(c1cccc(F)c1)N1CC2CC2(c2ccccc2)C1 (stereo not drawn) | 68 to 69.5 |
| CCn1nnc2cc3c(cc2c1=O)OC1CCCN1C3=O (stereo not drawn) | 186 to 188 |
| COC(=O)CC[C@@H](CF)NC(=O)c1ccccc1 | 99.5 to 100 |
| COc1ccc(CSc2ccc(S(=O)(=O)N=CN(C)C)s2)cc1 | 92 to 101 |
| O=C(Cc1ccc2ccn(C3CCN(CCc4ccccc4F)CC3)c2c1)NCCO | 128 to 129 |
| Nc1cc(=O)n(Cc2cc(Cl)ccc2Cl)[nH]1 | 195 to 196 |
| O=C(Oc1ccc2c(c1Cl)Sc1ccccc1N2)c1ccccc1 | 203 |
| CCOC(=O)C1=C(N)NC(C)=CC1c1ccc(OC)cc1 (stereo not drawn) | 160 to 161 |
| NC[C@@H]1C[C@@H](CC(=O)O)C(=O)N1CCCc1ccccc1 | 188 to 192 |
| CC(=O)N1N=C(c2ccc([N+](=O)[O-])cc2)c2cc3c(cc2C=C1C)OCCOC3 | 202 to 204 |
| O=C(Cn1nnc2ccccc21)Nc1ccc(-n2nc(C3CC3)cc2C2CC2)cc1 | 216 to 220 |
| Cc1cc(N(C)CCO)cc(C)n1 | 139 to 144 |
| COc1cc(COc2nn(-c3ccccc3)cc2C=O)ccc1OCc1cn(-c2ccccn2)nc1C | 179 to 180 |
| O=C1C=C(CCCCC#CCCCC#CCO)C(=O)c2ccccc21 | 88 to 89.5 |
| COC(=S)c1cc(N)ccc1C | 96 to 98 |
| N#Cc1cccc(C(=O)Cn2cncn2)c1 | 172 to 173 |
| CC(C)CCCC(C)C1CCC2C3CC=C4CC(OC(=O)C(C)(C)CO)CCC4(C)C3CCC12C (stereo not drawn) | 174 to 176 |
| O=C(O)c1ccc(NCc2cncc3ccccc23)cc1 | 237 to 240 |
| Clc1ccc2c(c1)-c1[nH]ncc1CO2 | 175 to 176 |
| CCOC(=O)c1oc2c([N+](=O)[O-])c(O)ccc2c1C | 186 to 188 |
| CC(=Cc1ccc(Oc2ccc(C)nc2)cc1)C(=O)O | 211 to 214 |
| COC(=O)c1ccc(COCn2cc(Cl)cnc2=O)cc1 | 172 |
| CCCC(=O)c1cnc2ccsc2c1Cl | 78 to 80 |
| O=C1CC2C1CC(O)C2Cl (stereo not drawn) | 69 to 71 |
| CC(=O)N1[C@@H](C(=O)O)C(C)(C)S[C@H]1c1ccccc1 | 216 to 217 |
